From patent US20230040770A1, “HETEROCYCLIC COMPOUND AND USE THEREOF” (TAKEDA PHARMACEUTICAL COMPANY LIMITED, priority 2019, published 2023)

Biological target: T1, human orexin type 2 receptor (Homo sapiens, UniProt O43614)
T1 construct: expressed in transfected cells
T1 sequence (O43614 1-444): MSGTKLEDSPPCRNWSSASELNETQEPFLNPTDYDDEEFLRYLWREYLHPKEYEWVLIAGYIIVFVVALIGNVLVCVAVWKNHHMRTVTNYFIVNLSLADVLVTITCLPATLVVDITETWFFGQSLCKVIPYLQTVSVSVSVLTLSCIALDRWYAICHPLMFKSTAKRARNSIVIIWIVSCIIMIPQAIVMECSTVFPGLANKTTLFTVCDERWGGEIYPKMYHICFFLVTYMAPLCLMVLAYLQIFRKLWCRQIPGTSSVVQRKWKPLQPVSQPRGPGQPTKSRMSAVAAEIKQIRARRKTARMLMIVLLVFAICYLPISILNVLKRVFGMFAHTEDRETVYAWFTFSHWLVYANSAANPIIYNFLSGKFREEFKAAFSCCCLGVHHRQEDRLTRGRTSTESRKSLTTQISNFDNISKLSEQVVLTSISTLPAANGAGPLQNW
Experiment: Measurement of orexin type 2 receptor agonist activity (calcium indicator fluorescence, CHO cells forcibly expressing human OX2 receptor)
Type: cell-based
Settings: compound at 3 μM; 0% = DMSO, 100% = orexin A (human) 10 nM
Description: To obtain a cell clone stably expressing human orexin type 2 receptor, human orexin type 2 receptor cDNA was inserted into pcDNA3.1(+) plasmid vector (Invitrogen), and a plasmid DNA for expression of human orexin type 2 receptor (pcDNA3.1(+)/hOX2R) was cloned. The plasmid DNA was introduced into CHO-dhfr cell by an electroporation method, and human orexin type 2 receptor expressing clone cells were obtained by limiting dilution method by using G418 drug resistance as a selection marker.
CHO cells forcibly expressing human OX2 receptor were seeded in each well of 384 well black transparent bottom plate (BD Falcon) at 7,500 cells/well, and cultured for one day in a 5% CO2 incubator at 37° C. After removal of the medium in the cell plate, assay buffer A containing a calcium indicator (HBSS (Thermo Fisher Scientific), 20 mM HEPES (Thermo Fisher Scientific), 0.1% BSA (Sigma-Aldrich), 2.5 μg/mL Fluo-4 AM (DOJINDO Chemical), 0.08% Pluronic F127 (DOJINDO Chemical), 1.25 mM probenecid (DOJINDO Chemical)) was added at 30 μL/well. The plate was stood for 30 min in a 5% CO2 incubator at 37° C., and further stood at room temperature for 30 min. A test compound prepared by diluting with assay buffer B (HBSS, 20 mM HEPES, 0.1% BSA) was added at 10 μL/well, and the fluorescence value was measured by FDSSμCELL (Hamamatsu Photonics K.K.) every one sec for 1 min, and thereafter every two sec for […]. The activity (%) of the test compound was calculated assuming that variation in the fluorescence value when DMSO was added instead of the test compound was 0%, and variation in the fluorescence value when orexin A (human) (PEPTIDE INSTITUTE, INC.) was added at the final concentration of 10 nM was 100%.

| OX2R agonist activity (3 μM, %) [%] | Compound |
| --- | --- |
| 102 | CS(=O)(=O)N[C@@H]1[C@H](Cc2cccc(-c3cccc(F)c3)c2)N(C(=O)C23CC(C2)C3)CC1(F)F [Example 21, N-{(2S,3R)-1-(bicyclo[1.1.1]pentane-1-carbonyl)-4,4-difluoro-2-[(3′-fluoro[1,1′-biphenyl]-3-yl)methyl]pyrrolidin-3-yl}methanesulfonamide] |
| 93 | CS(=O)(=O)N[C@@H]1[C@H](Cc2cccc(-c3cccc(F)c3)c2F)N(C(=O)C2(O)CCC2)CC1(F)F [Example 13, N-[(2S,3R)-2-[(2,3′-difluoro[1,1′-biphenyl]-3-yl)methyl]-4,4-difluoro-1-(1-hydroxycyclobutane-1-carbonyl)pyrrolidin-3-yl]methanesulfonamide] |
| 92 | CCS(=O)(=O)N[C@H]1[C@@H](F)CN(C(=O)N(C)C)[C@H]1Cc1cccc(-c2ccc(F)c(C)c2)c1F [Example 409, (2S,3R,4S)-2-[(2,4′-difluoro-3′-methyl[1,1′-biphenyl]-3-yl)methyl]-3-[(ethanesulfonyl)amino]-4-fluoro-N,N-dimethylpyrrolidine-1-carboxamide] |
| 96 | CCS(=O)(=O)N[C@H]1[C@@H](F)CN(C(=O)C2CCO2)[C@H]1Cc1cccc(-c2cc(C)ccc2F)c1F (stereo partly drawn) [Example 502, N-[(2S,3R,4S)-2-[(2,2′-difluoro-5′-methyl[1,1′-biphenyl]-3-yl)methyl]-4-fluoro-1-(oxetane-2-carbonyl)pyrrolidin-3-yl]ethanesulfonamide] |
| 102 | CC(C)C(=O)N1C[C@H](F)[C@H](NS(=O)(=O)C2CC2)[C@@H]1Cc1cccc(-c2cccc(F)c2)c1F [Example 382, N-[(2S,3R,4S)-2-[(2,3′-difluoro[1,1′-biphenyl]-3-yl)methyl]-4-fluoro-1-(2-methylpropanoyl)pyrrolidin-3-yl]cyclopropanesulfonamide] |
| 94 | CCS(=O)(=O)N[C@@H]1[C@H](Cc2cccc(-c3cccc(Cl)c3)c2F)N(C(=O)C2CCO2)CC1(F)F (stereo partly drawn) [Example 268, N-[(2S,3R)-2-[(3′-chloro-2-fluoro[1,1′-biphenyl]-3-yl)methyl]-4,4-difluoro-1-(oxetane-2-carbonyl)pyrrolidin-3-yl]ethanesulfonamide] |
| 95 | CS(=O)(=O)N[C@H]1[C@@H](F)CN(C(=O)C23CC(C2)C3)[C@H]1Cc1cccc(-c2cccc(F)c2)c1F [Example 231, N-{(2S,3R,4S)-1-(bicyclo[1.1.1]pentane-1-carbonyl)-2-[(2,3′-difluoro[1,1′-biphenyl]-3-yl)methyl]-4-fluoropyrrolidin-3-yl}methanesulfonamide] |
| 102 | CCS(=O)(=O)N[C@H]1[C@@H](F)CN(C(=O)C2CCO2)[C@H]1Cc1cccc(-c2cccc(C(F)F)c2)c1F (stereo partly drawn) [Example 535, N-[(2S,3R,4S)-2-{[3′-(difluoromethyl)-2-fluoro[1,1′-biphenyl]-3-yl]methyl}-4-fluoro-1-(oxetane-2-carbonyl)pyrrolidin-3-yl]ethanesulfonamide] |
| 106 | Cc1cccc(-c2cccc(C[C@H]3[C@@H](NS(=O)(=O)C4CC4)[C@@H](F)CN3C(=O)N(C)C)c2F)c1 [Example 538, (2S,3R,4S)-3-[(cyclopropanesulfonyl)amino]-4-fluoro-2-[(2-fluoro-3′-methyl[1,1′-biphenyl]-3-yl)methyl]-N,N-dimethylpyrrolidine-1-carboxamide] |
| 83 | CN(C)C(=O)N1CC(F)(F)[C@H](NS(=O)(=O)N(C)C)[C@@H]1Cc1cccc(-c2cccc(F)c2)c1F [Example 528, (2S,3R)-2-[(2,3′-difluoro[1,1′-biphenyl]-3-yl)methyl]-3-[(dimethylsulfamoyl)amino]-4,4-difluoro-N,N-dimethylpyrrolidine-1-carboxamide] |
| 102 | CCS(=O)(=O)N[C@H]1[C@@H](F)CN(C(=O)C(C)(C)O)[C@H]1Cc1cccc(-c2cccc(Cl)c2F)c1F [Example 347, N-[(2S,3R,4S)-2-[(3′-chloro-2,2′-difluoro[1,1′-biphenyl]-3-yl)methyl]-4-fluoro-1-(2-hydroxy-2-methylpropanoyl)pyrrolidin-3-yl]ethanesulfonamide] |
| 90 | O=C(N1CCC1)N1C[C@H](F)[C@H](NS(=O)(=O)C2CC2)[C@@H]1Cc1cccc(-c2cc(F)cc(F)c2)c1F [Example 544, N-{(2S,3R,4S)-1-(azetidine-1-carbonyl)-4-fluoro-2-[(2,3′,5′-trifluoro[1,1′-biphenyl]-3-yl)methyl]pyrrolidin-3-yl}cyclopropanesulfonamide] |
| 101 | CC(C)C(=O)N1C[C@H](F)[C@H](NS(C)(=O)=O)[C@@H]1Cc1cccc(-c2cc(F)cc(F)c2)c1F [Example 316, N-{(2S,3R,4S)-4-fluoro-1-(2-methylpropanoyl)-2-[(2,3′,5′-trifluoro[1,1′-biphenyl]-3-yl)methyl]pyrrolidin-3-yl}methanesulfonamide] |
| 94 | CCS(=O)(=O)N[C@H]1[C@@H](F)CN(C(=O)N2CCC2)[C@H]1Cc1cccc(-c2cccc(F)c2)c1F [Example 211, N-{(2S,3R,4S)-1-(azetidine-1-carbonyl)-2-[(2,3′-difluoro[1,1′-biphenyl]-3-yl)methyl]-4-fluoropyrrolidin-3-yl}ethanesulfonamide] |
| 92 | Cc1cccc(-c2cccc(C[C@H]3[C@@H](NS(=O)(=O)C4CC4)[C@@H](F)CN3C(=O)C3CCO3)c2F)c1 (stereo partly drawn) [Example 489, N-[(2S,3R,4S)-4-fluoro-2-[(2-fluoro-3′-methyl[1,1′-biphenyl]-3-yl)methyl]-1-(oxetane-2-carbonyl)pyrrolidin-3-yl]cyclopropanesulfonamide] |
| 95 | CCS(=O)(=O)N[C@H]1[C@@H](F)CN(C(=O)N(C)C)[C@H]1Cc1cccc(-c2ccccc2)c1F [Example 295, (2S,3R,4S)-3-[(ethanesulfonyl)amino]-4-fluoro-2-[(2-fluoro[1,1′-biphenyl]-3-yl)methyl]-N,N-dimethylpyrrolidine-1-carboxamide] |
| 108 | Cc1cccc(-c2cccc(C[C@H]3[C@@H](NS(C)(=O)=O)C(F)(F)CN3C(=O)C(C)(C)O)c2F)c1 [Example 25, N-[(2S,3R)-4,4-difluoro-2-[(2-fluoro-3′-methyl[1,1′-biphenyl]-3-yl)methyl]-1-(2-hydroxy-2-methylpropanoyl)pyrrolidin-3-yl]methanesulfonamide] |
| 86 | CN(C)C(=O)N1CC(F)(F)[C@H](NS(=O)(=O)C2CC2)[C@@H]1Cc1cccc(-c2cccc(F)c2)c1F [Example 523, (2S,3R)-3-[(cyclopropanesulfonyl)amino]-2-[(2,3′-difluoro[1,1′-biphenyl]-3-yl)methyl]-4,4-difluoro-N,N-dimethylpyrrolidine-1-carboxamide] |
| 98 | CCS(=O)(=O)N[C@@H]1[C@H](Cc2cccc(-c3cccc(F)c3)c2)N(C(=O)[C@H]2CCCO2)CC1(F)F [Example 88, N-{(2S,3R)-4,4-difluoro-2-[(3′-fluoro[1,1′-biphenyl]-3-yl)methyl]-1-[(2R)-oxolane-2-carbonyl]pyrrolidin-3-yl}ethanesulfonamide] |
| 96 | Cc1cccc(-c2cccc(C[C@H]3[C@@H](NS(=O)(=O)C4CC4)C(F)(F)CN3C(=O)C3(O)CCC3)c2F)c1 [Example 430, N-[(2S,3R)-4,4-difluoro-2-[(2-fluoro-3′-methyl[1,1′-biphenyl]-3-yl)methyl]-1-(1-hydroxycyclobutane-1-carbonyl)pyrrolidin-3-yl]cyclopropanesulfonamide] |
| 102 | CN(C)C(=O)N1C[C@H](F)[C@H](NS(=O)(=O)N(C)C)[C@@H]1Cc1cccc(-c2cccc(F)c2)c1F [Example 344, (2S,3R,4S)-2-[(2,3′-difluoro[1,1′-biphenyl]-3-yl)methyl]-3-[(dimethylsulfamoyl)amino]-4-fluoro-N,N-dimethylpyrrolidine-1-carboxamide] |
| 103 | CCS(=O)(=O)N[C@@H]1[C@H](Cc2cccc(-c3ccc(F)c(C)c3F)c2F)N(C(=O)C2CCO2)CC1(F)F (stereo partly drawn) [Example 478, N-{(2S,3R)-4,4-difluoro-1-(oxetane-2-carbonyl)-2-[(2,2′,4′-trifluoro-3′-methyl[1,1′-biphenyl]-3-yl)methyl]pyrroldiin-3-yl}ethanesulfonamide] |
